Experimental data taken from US10072021B2, “Compound for inhibiting binding between DX2 protein and P14/ARF protein, and pharmaceutical composition for treating or preventing cancer disease containing same as effective ingredient” (PUSAN NATIONAL UNIVERSITY INDUSTRY-UNIVERSITY COOPERATION …, priority 2014, dated 2018).

Experiments:
p53-p14/ARF interaction = biological target: T1, p53-p14/ARF interaction (Homo sapiens, UniProt P04637+Q8N726); assay: GST pull-down assay, selectivity: p53-p14/ARF interaction; format: binding; settings: FIG. 3D, 3E
T1 construct: a p14/ARF fragment (full-length) was ligated into EcoRI and Hind II sites of pGEX-TEV vector; made in house; host or cells: E. coli BL21(DE3) for GST-p14/ARF
T1 sequence (Q8N726 whole entry, the tested form may be a part): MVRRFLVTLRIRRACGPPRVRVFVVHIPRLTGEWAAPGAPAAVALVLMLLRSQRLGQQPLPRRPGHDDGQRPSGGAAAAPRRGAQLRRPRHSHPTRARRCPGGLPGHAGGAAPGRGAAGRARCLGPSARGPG
T1 sequence (P04637 whole entry, the tested form may be a part): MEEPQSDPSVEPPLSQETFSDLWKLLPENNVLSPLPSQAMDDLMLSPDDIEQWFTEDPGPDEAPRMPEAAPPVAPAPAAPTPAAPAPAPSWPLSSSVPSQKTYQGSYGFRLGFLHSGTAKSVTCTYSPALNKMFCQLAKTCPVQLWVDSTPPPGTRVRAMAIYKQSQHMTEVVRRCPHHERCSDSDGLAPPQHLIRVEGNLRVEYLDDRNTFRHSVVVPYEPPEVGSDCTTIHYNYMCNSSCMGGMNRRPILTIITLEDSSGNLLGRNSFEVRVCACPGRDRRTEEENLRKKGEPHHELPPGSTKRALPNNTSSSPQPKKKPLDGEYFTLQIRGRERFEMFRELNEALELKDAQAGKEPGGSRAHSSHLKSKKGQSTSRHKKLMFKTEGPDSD
Description: (§1) Through GST pull-down assays, more specific binding inhibitors were selected among the previously screened candidate drugs as DX2-p14/ARF binding inhibitors. That is, a p14/ARF fragment (full-length) was ligated into EcoRI and Hind II sites of pGEX-TEV vector, which is a modified vector by adding a TEV protease cleavage site to pGEX-4T1. The recombinant proteins were then expressed in E. coli strain BL21(DE3) as GST-fusion proteins. The proteins were purified by glutathione affinity chromatography.
(§2) To address direct binding between the two proteins, agarose-bead conjugated GST (negative control) or GST-target protein was incubated with cell lysate or recombinant protein in radioimmunoprecipitation assay (RIPA) buffer (NaCl, 25 mM Tris-Cl, 1% NP-40, 1% sodium deoxycholate, 0.1% SDS, protease inhibitor mixture) for 1 hour at a temperature of 4° C. for a reaction.

[1] = test system: H128 cells (SCLC cell line); assay: MTT viability of H128 cells; format: cell-based, human; settings: MTT assay, FIG. 7
Experimental: By MTT assay, anticancer effects were confirmed based on viability of tumor cells. That is, cells were incubated in 0.5 mg/ml of MTT solution for 4 hours at a temperature of 37° C. for a reaction, and then, formazen products formed therefrom were dissolved in dimethyl sulfoxide (DMSO). Then, absorbance thereof was measured at 540 nm by using a spectrometer.

DX2-p14/ARF binding = biological target: T2, DX2-p14/ARF binding (Homo sapiens, UniProt Q13155); assay: GST pull-down assay of DX2-p14/ARF binding; settings: FIG. 2A, 3A, 3D, 3E
T2 construct: made in house; host or cells: E. coli BL21(DE3) for GST-p14/ARF; DX2 from 'cell lysate or recombinant protein'
T2 sequence (Q13155 1-251 isoform Q13155-2): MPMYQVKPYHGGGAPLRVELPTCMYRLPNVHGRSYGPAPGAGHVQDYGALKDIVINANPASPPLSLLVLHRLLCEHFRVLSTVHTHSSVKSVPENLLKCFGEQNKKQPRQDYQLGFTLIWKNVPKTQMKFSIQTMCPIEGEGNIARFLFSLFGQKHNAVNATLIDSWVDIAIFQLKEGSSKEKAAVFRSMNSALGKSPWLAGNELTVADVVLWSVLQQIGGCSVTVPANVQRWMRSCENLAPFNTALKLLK
Description: as §1, §2

H446 xenograft = test system: H446 xenograft
Experimental: DK (5 month-old, N=6) mice were administered with carrier, SLCB050 (5 or 10 mg/kg), Adriamycin (1, 2.5, or 5 mg/kg), and a combination of SLCB050 and Adriamycin by intraperitoneal (i.p.) injection. After termination of the experiment of each group, mice were dissected and isolated lung tissues. For xenograft, 1×10^7 H446 cells (ATCC) were seeded in nude ice. After 4 weeks, tumor bearing mice were injected with Adriamycin, […], or a combination thereof for 6 weeks. Every weeks, tumor volume and body weight were measured.

lung tumors of DK mice = assay: In vivo anticancer effect in DK mice (lung tumors); settings: DK mice, non-toxic dose of Adriamycin, FIG. 10B
Experimental: All experimental procedures using laboratory animals were approved by the animal care committee of Pusan National University. DX2 (C57/BL6) and K-RasLA2 (C57/BL6) mice were obtained from Dr. Kim, Sung-Hoon and Professor. Choi, Kang-Ryeol (Yonsei University), respectively, and double Tg mice were obtained by cross-breeding of DX2 and K-RasLA2 mice. Before experiment, all mice were maintained under temperature- and light-controlled conditions (20-23° C., 12 h/12 h light/dark cycle), and provided autoclaved food and water.
Every weeks, tumor volume and body weight were measured.
After dissection of mice, tissues were fixed using 10% formalin (in PBS) for 24 hours, and embedded in paraffin blocks according to a basic tissue processing procedure. For histological analysis, embedded tissues were cut for […] by Leica microtome (Wetzlar, Germany) and transferred onto adhesive-coated slides (Marienfeld laboratory glassware, Germany). After deparaffin and rehydration, sections were then stained with H&E for routine examination.
For IHC staining, rehydrated tissue sections were incubated with antibodies to Ki-67 (Abcam, ab15580), pan-keratin (Sigma, C2931), pro-surfactant C (Millipore, AB3786), NSE (DAKO, IS612), and HER2/Neu (DAKO, A0458) for a reaction. Antigen retrieval was performed using 10 mM sodium citrate (pH 6.0) twice at a temperature of 95° C. for 10 minutes each, and endogenous peroxidase activity was blocked with 3% […] for 10 min. Then, the slides were dehydrated following a standard procedure and sealed with cover glass using mounting solution. TUNEL reaction was done as described in the manual for In Situ Cell Death Detection Kit, POD (Hoffmann-La Roche Ltd, Basel, Swizerland).
To evaluate tumor incidence, lung tissues of each mouse was fixed and embedded in paraffin. 5 sections from each mouse were examined by 3 independent investigator, who counted tumor. In addition, tumor area was calculated by tumor occupied area in total lung area using photoshop software.

melting point | Compound | effect on interaction of p53-p14/ARF (p53-p14/ARF interaction) | viability of H128 cells [1] | inhibitory effect on DX2-p14/ARF binding (DX2-p14/ARF binding) | toxicity, Adriamycin alone (H446 xenograft; Adriamycin 5 mg/kg, three times/week) | tumor growth, Adriamycin alone (H446 xenograft; Adriamycin 5 mg/kg, three times/week, FIG. 9B) | response of H446 xenograft model (H446 xenograft; single agents, FIG. 9A) | anticancer effect, Adriamycin alone (lung tumors of DK mice)
58.5 °C | CC1(C)Oc2cc3oc(=O)ccc3cc2C[C@@H]1OC(=O)N/C=C/c1ccco1 [HJH141206, (7S)-(+)-2-(Furan-2-yl)vinylcarbamic acid, 8,8-dimethyl-2-oxo-6,7-dihydro-2H, 8H-pyrano[3,2-g]chromen-7-yl-ester] | did not affect the interaction of p53-p14/ARF | reduced the viability of H128 cells in a dose-dependent manner | showed inhibitory effects on DX2-p14/ARF binding |  |  |  | 
 | CC1(C)Oc2cc3oc(=O)ccc3cc2C[C@H]1OC(=O)N/C=C/c1ccco1 [HJH141204, (7R)-(−)-2-(Furan-2-yl)vinylcarbamic Acid, 8,8-dimethyl-2-oxo-6,7-dihydro-2H,8H-pyrano[3,2-g]chromen-7-yl-ester] | did not affect the interaction of p53-p14/ARF | reduced the viability of H128 cells in a dose-dependent manner | showed inhibitory effects on DX2-p14/ARF binding |  |  |  | 
 | COc1cc(/C=C/C(=O)O[C@H]2Cc3cc4ccc(=O)oc4cc3OC2(C)C)ccc1O [SLCB36, reference compound] | did not show inhibitory effect on both binding | did not significantly affect the cell viability | did not show inhibitory effect on both binding |  |  |  | 
 | COc1cccc2c1C(=O)c1c(O)c3c(c(O)c1C2=O)C[C@@](O)(C(=O)CO)C[C@@H]3O[C@H]1C[C@H](N)[C@H](O)[C@H](C)O1 [Adriamycin, reference compound] |  |  |  | evoked rapid weight loss and death | tumor growth was suppressed within 4 weeks | resistant | did not show anticancer effect
